Measurements from patent US20220265629A1, “TREATMENT OF SYSTOLIC DYSFUNCTION AND HEART FAILURE WITH REDUCED EJECTION FRACTION WITH THE COMPOUND (R)-4-(1-((3-(DIFLUOROMETHYL)-1-METHYL-1H-PYRAZOL-4-YL)SULFONYL)-1-FLUOROETHYL)-N-(ISOXAZOL-3-YL)PIPERIDINE-1-CARBOXAMIDE” (MyoKardia, Inc., priority 2019, published 2022).
Read-outs that look alike come from different tables or passages of the source. Marks after values point to notes of the source that are not given here.

Experiments:
[1] = Pharmacokinetics in beagle dogs (single doses); format: in vivo
Protocol: The pharmacokinetics of Compound I have been evaluated in multiple dog studies. […] At a single dose<3 mg/kg, the observed oral bioavailability was approximately 100%. This nonlinear pharmacokinetics of Compound I was also observed in humans. […] In order to delineate the underlying mechanism responsible for the nonlinear pharmacokinetics, physiologically-based absorption models of Compound I for beagle dogs and healthy volunteers were developed and used to assess the effect of particle size on the in vivo dissolution, absorption, bioavailability, and systemic exposure of Compound I.
Data used for Compound I physiologically-based pharmacokinetic (PBPK) model development and verification were obtained from in vivo nonclinical studies in dogs (FIG. 13), a clinical study in healthy volunteers (Example 1), and in vitro experiments (Table 20).

[2] = tested on: patients with stable HFrEF; assay: HFrEF study Part 2 (MAD Cohorts A-D): TTE pharmacodynamics by plasma concentration group; format: in vivo, human; conditions: for A-wave duration, mean change from baseline (placebo-corrected) / A-wave peak, mean change from baseline (placebo-corrected) / DBP (supine), mean change from baseline (placebo-corrected) / E-wave peak, mean change from baseline (placebo-corrected) / E/A ratio, mean change from baseline (placebo-corrected) / E/e′ (lateral), mean change from baseline (placebo-corrected) / Heart rate (supine), mean change from baseline (placebo-corrected) / IVRT, mean change from baseline (placebo-corrected) / LVEDD, mean change from baseline (placebo-corrected) / LVEDVi, mean change from baseline (placebo-corrected) / LVEF, mean change from baseline (placebo-corrected) / LVESD, mean change from baseline (placebo-corrected) / LVESVi, mean change from baseline (placebo-corrected) / LVFS, mean change from baseline (placebo-corrected) / LVGCS, mean change from baseline (placebo-corrected) / LVGLS, mean change from baseline (placebo-corrected) / LVSV, mean change from baseline (placebo-corrected) / SBP (supine), mean change from baseline (placebo-corrected) / SET, mean change from baseline (placebo-corrected) / Tei index, mean change from baseline (placebo-corrected) / e′ (lateral), mean change from baseline (placebo-corrected) / s′ (lateral), mean change from baseline (placebo-corrected): LS mean difference vs placebo
Protocol: PD assessment was done by transthoracic echocardiography as described in Example 1 above. TTE evaluations of LVSV (derived from LVOT-VTI), LVEF, LVFS, SET, and other parameters were PD assessments at predetermined time points. The patients were on bed rest for 10 minutes before the TTEs were obtained. In Part 2 (MAD), TTEs were usually obtained before the morning close and/or at 7 hours postclose (i.e., close to the anticipated peak effect based on the PK profile from the healthy volunteer studies).
The pharmacodynamic effects of Compound I on echocardiographic markers of cardiac structure and function were analyzed by Compound I plasma concentration groups: <2000 ng/mL (lower concentration group), 2000-3500 ng/mL (medium concentration group) and ≥3500 ng/mL (higher concentration group) (Table 16) and with PK-PD scatterplots (FIGS. 9A-9C). The medium concentration group corresponds to steady-state plasma concentrations achieved with 50 mg BID (Table 17). A total of 526 echocardiograms were performed from which the PK-PD analysis was derived.

[3] = MAD cohorts, plasma concentration group 2000-<3500 ng/mL (n = 26)
[4] = MAD cohorts, plasma concentration group <2000 ng/mL (n = 30)
[5] = MAD cohorts, plasma concentration group ≥3500 ng/mL (n = 13)
[6] = higher concentration group (≥3500 ng/mL)
[7] = medium concentration group (2000-3500 ng/mL)

## Cn1cc(S(=O)(=O)[C@@](C)(F)C2CCN(C(=O)Nc3ccon3)CC2)c(C(F)F)n1 [Compound I, (R)-4-(1-((3-(difluoromethyl)-1-methyl-1H-pyrazol-4-yl)sulfonyl)-1-fluoroethyl)-N-(isoxazol-3-yl)piperidine-1-carboxamide]
[1]; beagle, dog, plasma, po, single dose <3 mg/kg, read-out: oral bioavailability
  bioavailability: ~100%
[1]; beagle, dog, plasma, oral 10 mg/kg, micronized (Dv50=3.2 μm), read-out: bioavailability
  bioavailability: > 100%
[1]; beagle, dog, plasma, oral 100 mg, Dv50=46 μm, read-out: bioavailability
  bioavailability: ~40%
[1]; beagle, plasma, 1-compartmental model analysis of in vivo data in dog
  Vd: 1.51 L/kg
[1]; beagle, plasma, 1-compartmental model analysis of in vivo data in dog, read-out: CL (Dog) (converted)
  clearance: 1.58 mL/min/kg
[1]; single oral dose 25 mg (3 mg/kg) or lower, regardless of particle size
  bioavailability: approximately 100%
[2]; MAD cohorts
  LVEF: non-significant increase
[2]; [3]
  A-wave duration, mean change from baseline (placebo-corrected): 5.9 ms
  A-wave peak, mean change from baseline (placebo-corrected): 6.1** cm/s
  DBP (supine), mean change from baseline (placebo-corrected): −0.2 mmHg
  E-wave peak, mean change from baseline (placebo-corrected): -2.1 cm/s
  E/A ratio, mean change from baseline (placebo-corrected): −0.1**
  E/e′ (lateral), mean change from baseline (placebo-corrected): −0.7
  Heart rate (supine), mean change from baseline (placebo-corrected): −2.0 bpm
  IVRT, mean change from baseline (placebo-corrected): 10.5 ms
  LVEDD, mean change from baseline (placebo-corrected): −0.9** mm
  LVEDVi, mean change from baseline (placebo-corrected): −1.1 mL/m^2
  LVEF, mean change from baseline (placebo-corrected): 1.1%
  LVESD, mean change from baseline (placebo-corrected): −1.3** mm
  LVESVi, mean change from baseline (placebo-corrected): −1.3 mL/m^2
  LVFS, mean change from baseline (placebo-corrected): 0.8%
  LVGCS, mean change from baseline (placebo-corrected): −2.1** %
  LVGLS, mean change from baseline (placebo-corrected): −0.9* %
  LVSV, mean change from baseline (placebo-corrected): 7.8** mL
  SBP (supine), mean change from baseline (placebo-corrected): −0.8 mmHg
  SET, mean change from baseline (placebo-corrected): 36** ms
  Tei index, mean change from baseline (placebo-corrected): −0.08**
  e′ (lateral), mean change from baseline (placebo-corrected): 0.1
  s′ (lateral), mean change from baseline (placebo-corrected): 0.6**
[2]; [4]
  A-wave duration, mean change from baseline (placebo-corrected): 6.0 ms
  A-wave peak, mean change from baseline (placebo-corrected): 4.1* cm/s
  DBP (supine), mean change from baseline (placebo-corrected): −0.9 mmHg
  E-wave peak, mean change from baseline (placebo-corrected): -3.8 cm/s
  E/A ratio, mean change from baseline (placebo-corrected): −0.1**
  E/e′ (lateral), mean change from baseline (placebo-corrected): −0.8
  Heart rate (supine), mean change from baseline (placebo-corrected): 0.0 bpm
  IVRT, mean change from baseline (placebo-corrected): 2.7 ms
  LVEDD, mean change from baseline (placebo-corrected): −0.5 mm
  LVEDVi, mean change from baseline (placebo-corrected): −1.1 mL/m^2
  LVEF, mean change from baseline (placebo-corrected): −0.3%
  LVESD, mean change from baseline (placebo-corrected): −0.8 mm
  LVESVi, mean change from baseline (placebo-corrected): −0.9 mL/m^2
  LVFS, mean change from baseline (placebo-corrected): 0.5%
  LVGCS, mean change from baseline (placebo-corrected): −0.4%
  LVGLS, mean change from baseline (placebo-corrected): −0.3%
  LVSV, mean change from baseline (placebo-corrected): 3.1 mL
  SBP (supine), mean change from baseline (placebo-corrected): −1.5 mmHg
  SET, mean change from baseline (placebo-corrected): 15** ms
  Tei index, mean change from baseline (placebo-corrected): −0.05
  e′ (lateral), mean change from baseline (placebo-corrected): −0.2
  s′ (lateral), mean change from baseline (placebo-corrected): 0.2
[2]; [5]
  A-wave duration, mean change from baseline (placebo-corrected): 11.9** msec
  A-wave peak, mean change from baseline (placebo-corrected): 4.3 cm/s
  DBP (supine), mean change from baseline (placebo-corrected): −1.4 mmHg
  E-wave peak, mean change from baseline (placebo-corrected): −10** cm/s
  E/A ratio, mean change from baseline (placebo-corrected): −0.2**
  E/e′ (lateral), mean change from baseline (placebo-corrected): 0.3
  Heart rate (supine), mean change from baseline (placebo-corrected): −1.1 bpm
  IVRT, mean change from baseline (placebo-corrected): 27.8** msec
  LVEDD, mean change from baseline (placebo-corrected): −1.8** mm
  LVEDVi, mean change from baseline (placebo-corrected): −5.2* mL/m^2
  LVEF, mean change from baseline (placebo-corrected): 2.3%
  LVESD, mean change from baseline (placebo-corrected): −1.8** mm
  LVESVi, mean change from baseline (placebo-corrected): −4.6** mL/m^2
  LVFS, mean change from baseline (placebo-corrected): 0.5%
  LVGCS, mean change from baseline (placebo-corrected): −3.3** %
  LVGLS, mean change from baseline (placebo-corrected): −1.0* %
  LVSV, mean change from baseline (placebo-corrected): 5.7* mL
  SBP (supine), mean change from baseline (placebo-corrected): −5.2* mmHg
  SET, mean change from baseline (placebo-corrected): 48** ms
  Tei index, mean change from baseline (placebo-corrected): −0.02
  e′ (lateral), mean change from baseline (placebo-corrected): −1.0**
  s′ (lateral), mean change from baseline (placebo-corrected): 0.3
[2]; SAD and MAD cohorts
  SET increase: < 50 ms
[2]; SAD and MAD cohorts, exposure-related
  increase in SV (forward flow): 8 to 9 mL
[2]; SAD and MAD cohorts, concentrations ≥2000 ng/mL
  Myocardial performance (Tei index) improved: approximately 10%
[2]; [6]
  LV longitudinal as well as circumferential strain, mean placebo-corrected decrease: −3.3%
  LVESD, mean placebo-corrected decrease: −1.8 mm
  SET, mean placebo-corrected increase: 48 ms
  peak E wave, decrease: -10 cm/s
  stroke volume, mean placebo-corrected increase: 5.7 mL
[2]; [7]
  LV longitudinal as well as circumferential strain, mean placebo-corrected decrease: −2.1%
  LVESD, mean placebo-corrected decrease: −1.3 mm
  SET, mean placebo-corrected increase: 36 ms
  stroke volume, mean placebo-corrected increase: 7.8 mL
[2]; medium or higher concentration group
  filling pressures (E/e′): No change
